Assay results published in paper PMC5218480 (PLoS ONE, 2017).

System: MV-4-11 cells
Experiment: Gene expression microarray analysis (Affymetrix PrimeView) and GSEA
Format: cell-based, human
Design: RFU PODN (11730768_x_at) / Fold change /veh PODN (11730768_x_at) / RFU LINC00158 (11744669_a_at) / Fold change /veh LINC00158 (11744669_a_at) / RFU DUSP10 (11751237_a_at) / Fold change /veh DUSP10 (11751237_a_at) / RFU ID3 (11757404_x_at) / Fold change /veh ID3 (11757404_x_at) / RFU PLEKHG5 (11737974_s_at) / Fold change /veh PLEKHG5 (11737974_s_at) / RFU LRRC4B (11730491_at) / Fold change /veh LRRC4B (11730491_at) / RFU GIMAP4 (11747438_a_at) / Fold change /veh GIMAP4 (11747438_a_at) / RFU KRT8 (11758183_x_at) / Fold change /veh KRT8 (11758183_x_at) / RFU CNN1 (11734310_a_at) / Fold change /veh CNN1 (11734310_a_at) / RFU VPS37D (11726825_at) / Fold change /veh VPS37D (11726825_at) / RFU C10orf10 (11716522_x_at) / Fold change /veh C10orf10 (11716522_x_at) / RFU KIR2DL2 /// KIR2DL4 /// KIR2DL5A /// KIR2DL5B /// KIR2DS1 /// KIR2DS2 /// KIR2DS3 /// KIR2DS4 /// KIR3DL3 /// KIR3DL3 /// KIR3DS1 (11738374_at) / Fold change /veh KIR2DL2 /// KIR2DL4 /// KIR2DL5A /// KIR2DL5B /// KIR2DS1 /// KIR2DS2 /// KIR2DS3 /// KIR2DS4 /// KIR3DL3 /// KIR3DL3 /// KIR3DS1 (11738374_at) / RFU C1QL1 (11718748_at) / Fold change /veh C1QL1 (11718748_at) / RFU TMPRSS4 (11747572_a_at) / Fold change /veh TMPRSS4 (11747572_a_at) / RFU HAMP (11756126_x_at) / Fold change /veh HAMP (11756126_x_at) / RFU RNFT2 (11725882_a_at) / Fold change /veh RNFT2 (11725882_a_at) / RFU NR4A2 (11747474_a_at) / Fold change /veh NR4A2 (11747474_a_at) / RFU ABCC12 (11746883_a_at) / Fold change /veh ABCC12 (11746883_a_at) / RFU TMEM136 (11760407_x_at) / Fold change /veh TMEM136 (11760407_x_at) / RFU CLDN22 /// WWC2 (11732394_at) / Fold change /veh CLDN22 /// WWC2 (11732394_at) / RFU HLA-DPB1 (11760878_x_at) / Fold change /veh HLA-DPB1 (11760878_x_at) / RFU SPINT1 (11716480_a_at) / Fold change /veh SPINT1 (11716480_a_at) / RFU GAP43 (11754022_s_at) / Fold change /veh GAP43 (11754022_s_at) / RFU A4GNT (11735810_at) / Fold change /veh A4GNT (11735810_at) / RFU PRB3 (11715151_x_at) / Fold change /veh PRB3 (11715151_x_at) / RFU TUBB4B (11761932_at) / Fold change /veh TUBB4B (11761932_at) / RFU CAPN14 (11732068_a_at) / Fold change /veh CAPN14 (11732068_a_at) / RFU TMCC2 (11721928_a_at) / Fold change /veh TMCC2 (11721928_a_at) / RFU IRGQ (11745062_a_at) / Fold change /veh IRGQ (11745062_a_at) / RFU FAM174B (11720279_a_at) / Fold change /veh FAM174B (11720279_a_at) / RFU TMPRSS4 (11748680_a_at) / Fold change /veh TMPRSS4 (11748680_a_at) / RFU FAM212B (11763350_a_at) / Fold change /veh FAM212B (11763350_a_at) / RFU PLEKHG5 (11743358_a_at) / Fold change /veh PLEKHG5 (11743358_a_at) / RFU ZSCAN30 (11745921_a_at) / Fold change /veh ZSCAN30 (11745921_a_at) / RFU CMKLR1 (11741424_a_at) / Fold change /veh CMKLR1 (11741424_a_at) / RFU LOC101060620 /// MAPK8IP1 (11723275_at) / Fold change /veh LOC101060620 /// MAPK8IP1 (11723275_at) / RFU SPTSSB (11747773_x_at) / Fold change /veh SPTSSB (11747773_x_at) / RFU PRSS12 (11739890_at) / Fold change /veh PRSS12 (11739890_at) / RFU BIN1 (11741810_x_at) / Fold change /veh BIN1 (11741810_x_at) / RFU WNT11 (11732464_a_at) / Fold change /veh WNT11 (11732464_a_at) / RFU C10orf10 (11716521_a_at) / Fold change /veh C10orf10 (11716521_a_at) / RFU C5orf56 (11738089_at) / Fold change /veh C5orf56 (11738089_at) / RFU CYB561 (11721691_x_at) / Fold change /veh CYB561 (11721691_x_at) / RFU ANKRD19P (11752326_a_at) / Fold change /veh ANKRD19P (11752326_a_at) / RFU OR2T12 /// OR2T33 /// OR2T8 (11738714_s_at) / Fold change /veh OR2T12 /// OR2T33 /// OR2T8 (11738714_s_at) / RFU VCAN (11748164_a_at) / Fold change /veh VCAN (11748164_a_at) / RFU JSRP1 (11732532_at) / Fold change /veh JSRP1 (11732532_at) / RFU KRTAP10-11 (11738290_x_at) / Fold change /veh KRTAP10-11 (11738290_x_at) / RFU MYO3A (11730013_a_at) / Fold change /veh MYO3A (11730013_a_at) / RFU EBF3 (11725865_a_at) / Fold change /veh EBF3 (11725865_a_at) / RFU CAMK2N1 (11719241_x_at) / Fold change /veh CAMK2N1 (11719241_x_at) / RFU C5orf56 (11738088_a_at) / Fold change /veh C5orf56 (11738088_a_at) / RFU OLFML3 (11715873_a_at) / Fold change /veh OLFML3 (11715873_a_at) / RFU LOC100653217 /// NTM (11731650_a_at) / Fold change /veh LOC100653217 /// NTM (11731650_a_at) / RFU MAPK11 (11762145_a_at) / Fold change /veh MAPK11 (11762145_a_at) / RFU FIZ1 (11724087_x_at) / Fold change /veh FIZ1 (11724087_x_at) / RFU OASL (11726364_x_at) / Fold change /veh OASL (11726364_x_at) / RFU SOX15 (11748057_x_at) / Fold change /veh SOX15 (11748057_x_at) / RFU CD79A (11719716_a_at) / Fold change /veh CD79A (11719716_a_at) / RFU HIST1H1D (11736915_at) / Fold change /veh HIST1H1D (11736915_at) / RFU CASKIN2 (11723855_a_at) / Fold change /veh CASKIN2 (11723855_a_at) / RFU LOC730098 (11760151_x_at) / Fold change /veh LOC730098 (11760151_x_at) / RFU OR4N2 (11742367_at) / Fold change /veh OR4N2 (11742367_at) / RFU PRRT2 (11749266_a_at) / Fold change /veh PRRT2 (11749266_a_at) / RFU SNX32 (11753110_a_at) / Fold change /veh SNX32 (11753110_a_at) / RFU CDHR5 (11726645_a_at) / Fold change /veh CDHR5 (11726645_a_at) / RFU RCAN1 (11760418_a_at) / Fold change /veh RCAN1 (11760418_a_at) / RFU FAM167A (11723789_a_at) / Fold change /veh FAM167A (11723789_a_at) / RFU FAM26E (11764081_at) / Fold change /veh FAM26E (11764081_at) / RFU ISYNA1 (11749810_s_at) / Fold change /veh ISYNA1 (11749810_s_at) / RFU ACY1 (11761880_at) / Fold change /veh ACY1 (11761880_at) / RFU 11764098_at / Fold change /veh 11764098_at / RFU SAMD14 (11745864_x_at) / Fold change /veh SAMD14 (11745864_x_at) / RFU NPB (11741838_a_at) / Fold change /veh NPB (11741838_a_at) / RFU TMPRSS6 (11731388_a_at) / Fold change /veh TMPRSS6 (11731388_a_at) / RFU KRTAP10-2 (11738614_at) / Fold change /veh KRTAP10-2 (11738614_at) / RFU ARHGAP8 /// PRR5-ARHGAP8 (11727945_x_at) / Fold change /veh ARHGAP8 /// PRR5-ARHGAP8 (11727945_x_at) / RFU KRTAP5-7 /// NADSYN1 (11734609_at) / Fold change /veh KRTAP5-7 /// NADSYN1 (11734609_at) / RFU RASL12 (11751679_a_at) / Fold change /veh RASL12 (11751679_a_at) / RFU CDKN2B (11736163_a_at) / Fold change /veh CDKN2B (11736163_a_at) / RFU PRF1 (11729649_at) / Fold change /veh PRF1 (11729649_at) / RFU, ZNF638 /// ZNF638-IT1 / Fold change vs veh, ZNF638 /// ZNF638-IT1 / RFU, PANK3 / Fold change vs veh, PANK3 / RFU, SH3YL1 / Fold change vs veh, SH3YL1 / RFU, ZEB2 / Fold change vs veh, ZEB2 / RFU, NRIP1 / Fold change vs veh, NRIP1 / RFU, PTTG1IP / Fold change vs veh, PTTG1IP / RFU, CAPN2 / Fold change vs veh, CAPN2 / RFU, MED14 / Fold change vs veh, MED14 / RFU, SNORA58 / Fold change vs veh, SNORA58 / RFU, C1orf63 / Fold change vs veh, C1orf63 / RFU, LRRFIP1 / Fold change vs veh, LRRFIP1 / RFU, NDUFAF7 / Fold change vs veh, NDUFAF7 / RFU, SLC12A2 / Fold change vs veh, SLC12A2 / RFU, IBTK / Fold change vs veh, IBTK / RFU, ESF1 / Fold change vs veh, ESF1 / Fold change vs veh, TMEM50B / RFU, TAOK1 / Fold change vs veh, TAOK1 / RFU, ACBD3 / Fold change vs veh, ACBD3 / RFU, TMA16 / Fold change vs veh, TMA16 / RFU, RWDD3 / Fold change vs veh, RWDD3 / RFU, BCAT1 / Fold change vs veh, BCAT1 / RFU, EDEM3 / Fold change vs veh, EDEM3 / RFU, TMEM33 / Fold change vs veh, TMEM33 / RFU, WDR75 / Fold change vs veh, WDR75 / RFU, AHCTF1 / Fold change vs veh, AHCTF1 / RFU, TFRC / Fold change vs veh, TFRC / RFU, ZDHHC17 / Fold change vs veh, ZDHHC17 / RFU, NOM1 / Fold change vs veh, NOM1 / RFU, ARL8B / Fold change vs veh, ARL8B / RFU, ZBTB11 / Fold change vs veh, ZBTB11 / RFU, TAMM41 / Fold change vs veh, TAMM41 / RFU, KIAA1704 /// LOC100996395 / Fold change vs veh, KIAA1704 /// LOC100996395 / RFU, ING1 / Fold change vs veh, ING1 / RFU, TRMT61B / Fold change vs veh, TRMT61B / RFU, FUBP3 / Fold change vs veh, FUBP3 / RFU, TP53 / Fold change vs veh, TP53 / RFU, TNKS2 / Fold change vs veh, TNKS2 / RFU, ZFP14 / Fold change vs veh, ZFP14 / RFU, ACTR2 / Fold change vs veh, ACTR2 / RFU, PPP3R1 / Fold change vs veh, PPP3R1 / RFU, PIK3R1 / Fold change vs veh, PIK3R1 / RFU, HNRNPA1 / Fold change vs veh, HNRNPA1 / RFU, RNF170 / Fold change vs veh, RNF170 / RFU, ZNF28 / Fold change vs veh, ZNF28 / RFU, RNGTT / Fold change vs veh, RNGTT / RFU, OGT / Fold change vs veh, OGT / RFU, BRD1 / Fold change vs veh, BRD1 / RFU, MARS / Fold change vs veh, MARS / RFU, ZNF655 / Fold change vs veh, ZNF655 / RFU, FAHD1 / Fold change vs veh, FAHD1 / RFU, BDP1 / Fold change vs veh, BDP1 / RFU, LRRCC1 / Fold change vs veh, LRRCC1 / RFU, ARID1A / Fold change vs veh, ARID1A / RFU, ZNF146 / Fold change vs veh, ZNF146 / RFU, ZNF330 / Fold change vs veh, ZNF330 / RFU, GPN3 / Fold change vs veh, GPN3 / RFU, C9orf123 / Fold change vs veh, C9orf123 / RFU, N4BP2L2 / Fold change vs veh, N4BP2L2 / RFU, ARFIP1 / Fold change vs veh, ARFIP1 / RFU, FAM179B / Fold change vs veh, FAM179B / RFU, BCL10 / Fold change vs veh, BCL10 / RFU, UHRF1BP1L / Fold change vs veh, UHRF1BP1L / RFU, BET1 / Fold change vs veh, BET1 / RFU, CNOT2 / Fold change vs veh, CNOT2 / RFU, ZNF268 / Fold change vs veh, ZNF268 / Fold change vs veh, ZNF507 / RFU, DGCR2 / Fold change vs veh, DGCR2 / RFU, WDSUB1 / Fold change vs veh, WDSUB1 / Fold change vs veh, HSP90B1 /// MIR3652 / RFU, ADSS / Fold change vs veh, ADSS / RFU, GK / Fold change vs veh, GK / RFU, ZNF148 / Fold change vs veh, ZNF148 / RFU, TAF9 / Fold change vs veh, TAF9 / RFU, SLC1A5 / Fold change vs veh, SLC1A5 / RFU, SLMO2 / Fold change vs veh, SLMO2 / RFU, ABCC4 / Fold change vs veh, ABCC4 / RFU, LOC101060439 /// RAP1B / Fold change vs veh, LOC101060439 /// RAP1B / RFU, RFX7 / Fold change vs veh, RFX7 / RFU, GTPBP10 / Fold change vs veh, GTPBP10 / RFU, CNEP1R1 / Fold change vs veh, CNEP1R1 / RFU, BIVM-ERCC5 /// ERCC5 / Fold change vs veh, BIVM-ERCC5 /// ERCC5 / RFU, ILF3 / Fold change vs veh, ILF3 / RFU 11762660_at / Fold change /veh 11762660_at / RFU VCAN (11757783_s_at) / Fold change /veh VCAN (11757783_s_at) / RFU DDX43 (11728927_at) / Fold change /veh DDX43 (11728927_at) / RFU KRT8 (11758188_x_at) / Fold change /veh KRT8 (11758188_x_at) / RFU NKD1 (11759106_at) / Fold change /veh NKD1 (11759106_at) / RFU SRD5A1 (11742802_a_at) / Fold change /veh SRD5A1 (11742802_a_at) / RFU TPSAB1 /// TPSB2 (11721975_s_at) / Fold change /veh TPSAB1 /// TPSB2 (11721975_s_at) / RFU GSTM3 (11746129_a_at) / Fold change /veh GSTM3 (11746129_a_at) / RFU IL23R (11737362_x_at) / Fold change /veh IL23R (11737362_x_at) / RFU TMEM51 (11727254_a_at) / Fold change /veh TMEM51 (11727254_a_at) / RFU PIWIL2 (11732686_x_at) / Fold change /veh PIWIL2 (11732686_x_at) / RFU ORM1 (11744905_x_at) / Fold change /veh ORM1 (11744905_x_at) / RFU CCDC152 (11743942_at) / Fold change /veh CCDC152 (11743942_at) / RFU ECM1 (11717891_a_at) / Fold change /veh ECM1 (11717891_a_at) / RFU IL23R (11748794_a_at) / Fold change /veh IL23R (11748794_a_at) / RFU TNFAIP8L3 (11732012_x_at) / Fold change /veh TNFAIP8L3 (11732012_x_at) / RFU MBOAT4 (11741988_at) / Fold change /veh MBOAT4 (11741988_at) / RFU 11764193_at / Fold change /veh 11764193_at / RFU TMEM53 (11763286_at) / Fold change /veh TMEM53 (11763286_at) / RFU MAGEB2 (11727129_at) / Fold change /veh MAGEB2 (11727129_at) / RFU TMEM200A (11744735_a_at) / Fold change /veh TMEM200A (11744735_a_at) / RFU CCDC152 (11751479_a_at) / Fold change /veh CCDC152 (11751479_a_at) / RFU FAM211A (11726209_a_at) / Fold change /veh FAM211A (11726209_a_at) / RFU RGS16 (11746705_a_at) / Fold change /veh RGS16 (11746705_a_at) / RFU VCAN (11755009_s_at) / Fold change /veh VCAN (11755009_s_at) / RFU RHOB (11743442_s_at) / Fold change /veh RHOB (11743442_s_at) / RFU RGS16 (11720943_a_at) / Fold change /veh RGS16 (11720943_a_at) / RFU RGS16 (11720944_at) / Fold change /veh RGS16 (11720944_at) / RFU, VPS4B / Fold change vs veh, VPS4B / RFU, CREB1 / Fold change vs veh, CREB1 / RFU, DNAJC13 / Fold change vs veh, DNAJC13 / RFU, GNAQ / Fold change vs veh, GNAQ / RFU, CDK5R1 / Fold change vs veh, CDK5R1 / RFU, ZRANB3 / Fold change vs veh, ZRANB3 / RFU, CUL4A / Fold change vs veh, CUL4A / RFU, CCNY / Fold change vs veh, CCNY / RFU, UFL1 / Fold change vs veh, UFL1 / RFU, COG3 / Fold change vs veh, COG3 / RFU, DIAPH2 / Fold change vs veh, DIAPH2 / RFU, SKA2 / Fold change vs veh, SKA2 / RFU, AFF3 / Fold change vs veh, AFF3 / RFU, LMF1 / Fold change vs veh, LMF1 / RFU, IPO11 / Fold change vs veh, IPO11 / RFU, DFFB / Fold change vs veh, DFFB / RFU, FOXP1 / Fold change vs veh, FOXP1 / RFU, CARD8 / Fold change vs veh, CARD8 / RFU, STRN3 / Fold change vs veh, STRN3 / RFU, ADK / Fold change vs veh, ADK / RFU, RASSF2 / Fold change vs veh, RASSF2 / RFU, WIPF1 / Fold change vs veh, WIPF1 / RFU, LARP1B / Fold change vs veh, LARP1B / RFU, RASA1 / Fold change vs veh, RASA1 / RFU, RB1 / Fold change vs veh, RB1 / RFU, PPFIA1 / Fold change vs veh, PPFIA1 / RFU, MAT2A / Fold change vs veh, MAT2A / RFU, CCT5 / Fold change vs veh, CCT5 / RFU, WDR92 / Fold change vs veh, WDR92 / RFU, CUX1 / Fold change vs veh, CUX1 / RFU, TTC7A / Fold change vs veh, TTC7A / RFU, TMEM135 / Fold change vs veh, TMEM135 / RFU, DEPTOR / Fold change vs veh, DEPTOR / RFU, CPM / Fold change vs veh, CPM / RFU, DNAJB6 / Fold change vs veh, DNAJB6 / RFU, CACNA2D3 / Fold change vs veh, CACNA2D3 / RFU, DTX4 / Fold change vs veh, DTX4 / RFU, TFCP2 / Fold change vs veh, TFCP2 / RFU, GMCL1 /// GMCL1P1 / Fold change vs veh, GMCL1 /// GMCL1P1 / RFU, AEBP2 / Fold change vs veh, AEBP2 / RFU, SNHG1 /// SNORD22 /// SNORD25 /// SNORD26 /// SNORD27 /// SNORD28 /// SNORD29 /// SNORD31 / Fold change vs veh, SNHG1 /// SNORD22 /// SNORD25 /// SNORD26 /// SNORD27 /// SNORD28 /// SNORD29 /// SNORD31 / Fold change (Aza/veh), C12orf56 (ProbeSet 11735607_a_at) / Fold change (ACY-1035/veh), C12orf56 (ProbeSet 11735607_a_at) / Fold change (Aza/veh), FGFR1OP (ProbeSet 11751329_s_at) / Fold change (ACY-1035/veh), FGFR1OP (ProbeSet 11751329_s_at) / Fold change (Aza/veh), VPS36 (ProbeSet 11739960_a_at) / Fold change (ACY-1035/veh), VPS36 (ProbeSet 11739960_a_at) / RFU SYPL1 (11715823_x_at) / Fold change /veh SYPL1 (11715823_x_at) / RFU IGFBP7 (11715501_s_at) / Fold change /veh IGFBP7 (11715501_s_at) / RFU REEP3 (11722064_at) / Fold change /veh REEP3 (11722064_at) / RFU IGLL1 (11728026_x_at) / Fold change /veh IGLL1 (11728026_x_at): dose or concentration left out as unconfirmed
Settings: ProbeSet 11726703_a_at; LIST B

How did the “Fold change vs veh, BCL10” value turn out when Nc1ncn([C@@H]2O[C@H](CO)[C@@H](O)[C@H]2O)c(=O)n1 [azacitidine] was run?
The value was 0.88.
